Test results reported in US20200378956A1, “HUMAN MICROPHYSIOLOGICAL CELL SYSTEM FOR LIVER DISEASE CONVERSTION PROV 1-18585 AND PROV 2-19154” (EMULATE, INC., priority 2018, published 2020).
Like-named read-outs stand apart in the source and are kept apart here.

Experiments:
[1] = tested on: quadruple co-culture of hepatocytes, Kupffer cells, LSEC cells and Stellate cells; assay: Quadruple co-culture cell activation; type: cell-based; settings: FIG. 13B
[2] = tested on: human hepatocyte microchips; assay: Bosentan ALT release, hepatocyte microchip culture; type: cell-based; settings: various concentrations of bosentan
Excerpt: (§1) FIG. 49A-B presents exemplary data showing the release of alanine transaminase (ALT) in response to various concentrations of bosentan. • FIG. 49A: Human hepatocyte microchip culture. • FIG. 49B: Human hepatocyte conventional plate cell culture.
(§2) These microfluidic systems also enable high-resolution, real-time imaging coupled with a capability for in vitro analysis of biochemical, genetic and metabolic activities, all in the functional context of living tissue. This technology can be used to evaluate tissue development, organ physiology and/or disease etiology. In the context of drug discovery, including safety and efficacy, this technology is especially valuable for the study of molecular mechanisms of action, prioritization of lead candidates, toxicity testing and biomarker identification. Bhatia et al., “Microfluidic organs-on-chips” Nature Biotechnology 2014, 32(8):760-772. […] See, FIGS. 54A-B.

[3] = tested on: Human hepatocyte conventional plate cell culture; assay: Bosentan ALT release, conventional plate cell culture; type: cell-based; settings: various concentrations of bosentan
Excerpt: as §1, §2

[4] = tested on: sodium/bile acid cotransporter; assay: Bosentan effect on co-transporter gene expression; type: cell-based; settings: after three (3) days of culture
Excerpt: FIG. 50A-B presents exemplary data showing the effect of bosentan on co-transporter gene expression. • FIG. 50A: Sodium/bile co-transporter. • FIG. 50B: Bile Salt Export Pump (BSEP, ABCB11) co-transporter.
as §2

[5] = tested on: Bile Salt Export Pump (BSEP, ABCB11); assay: Bosentan effect on co-transporter gene expression; type: cell-based; settings: after three (3) days of culture
[6] = tested on: tri-culture of hepatocytes and Kupffer cells; settings: for cholesterol release: ethanol 0.04-0.16% BAC
2D models = settings: i.e., ~0.4%; cited from earlier work
Liver-Chip hepatocytes = assay: Ethanol / LPS dosing Liver-Chip study (FIG. 81-83)
Protocol: Oxidative stress was measured by staining of ROS-positive hepatocytes with MitoSOX™ Red (a fluorogenic dye specifically targeted to mitochondria in live cells. Oxidation of MitoSOX™ Red reagent produces red fluorescence.
Oxidation (red) is shown in the lower row stained with MitoSOX™ Red.

[7] = tested on: co-culture hepatocyte microchip; assay: Fructose-induced liver injury on co-culture hepatocyte microchip; type: cell-based
Protocol: The cell culture media effluent was analyzed for triglycerides, glycogen and glucose from both the top and bottom channels of the microchannel. See, Example 1. Cell imaging analysis of lipid droplet accumulation was performed with AdipoRed® and visualized with brightfield imaging.
The hepatocyte cells and endothelial cells were seeded and incubated as a co-culture in a hepatocyte microchip and samples were collected a specific time points. See, FIG. 32.
The specific media compositions were as follows: • Liver culture media: • Top Channel: DMEM (LG) 0% FBS, NEAA 1:200, ITSG 1:10,000, Vitamin C & dexamethasone
To each media, either a 1:1 glucose:fructose ratio (low fructose) or a 0.7:1.4 glucose:fructose ratio (high fructose) is added.

hepatic stellate cells = assay: Fibrosis development in the Liver-Chip; type: cell-based; settings: FIG. 46B
[8] = tested on: co-culture of hepatocytes and liver sinusoidal endothelial cells (LSECs); assay: In vitro NAFLD model, high fat diet on co-culture hepatocyte microchip; type: cell-based
Protocol: For example, a co-culture of hepatocytes and liver sinusoidal endothelial cells (LSECs) cultured on a hepatocyte microchip were exposed to a high fat diet comprising of oleic acid ([…]) for up to two days. Accumulating fat droplets within these cultured hepatocytes were identified with AdipoRed® or NileRed® staining. […] See, FIG. 15. […] See, FIGS. 16A-C. Additionally, the number of lipid droplets were quantitated as well as the accompanying glucose level was determined. […] See, FIG. 18A. […] See, FIG. 18B. Photomicrographs of LSEC mitochondrial function correlate in a positive manner with twenty-four (24) hours of a high fat cell diet. See, FIG. 18C. Photomicrographs of hepatocyte mitochondrial function correlate in a positive manner after twenty-four (24) hours of a high fat cell diet. See, FIG. 18D. […] See, FIG. 19. […] The high fat diet exposure between 24-48 hours was also performed with and without the insulin-secretion agonist, Exendin. See, FIG. 60A. […] See, FIGS. 60B, 62C, 17A-B.

[9] = tested on: tri-culture of hepatocytes, liver sinusoidal endothelial cells (LSECs) and Kupffer cells; assay: In vitro NASH model, high fat diet and LPS on tri-culture hepatocyte microchip; type: cell-based
Protocol: For example, a tri-culture of hepatocytes, liver sinusoidal endothelial cells (LSECs) and Kupffer cells were cultured on a hepatocyte microchip and exposed to a high fat diet comprising oleic acid. Subsequently, LPS (1 μg/ml ) was added to the high fat diet media to induce a Kupffer cell-mediated inflammatory response. […] See, FIG. 20B. When oleic acid exposure is supplemented with LPS the observance of stained lipid droplets decreases. See, FIG. 20C. […] See, FIG. 20D. […] See, FIG. 21A. […] See, FIG. 22A cf FIG. 22B. […] See, FIG. 23.

[10] = tested on: hepatocyte microchip co-culture system (e.g., Liver-Chip); assay: Fatty acid-induced steatosis in WEN/CSC media (Example IV); type: cell-based
Protocol: This example was performed on a hepatocyte microchip co-culture system (e.g., Liver-Chip). As a control condition, normal cell culture media “diet” (WEN media) was flowed through the top channel of the microchip, while a CSC 10% SFB was flowed through the bottom channel of the microchip. […] The following measurements were taken: i) Lipid drop staining with Nile Red®; ii) cholesterol quantification; iii) free fatty acid quantification; and iv) glucose quantification.

hepatocytes = settings: both the hepatocyte channel and the LSEC/Kupffer-cell channel
[11] = liver culture media, 48 hours, low or high fructose
[12] = oleic acid (0.1 to 0.5 μM) for up to two days

## TGF-β: growth factor used for stellate cell activation
[1]
  stellate cell activation (α-SMA staining): Stellate cell activation

## COc1ccccc1Oc1c(NS(=O)(=O)c2ccc(C(C)(C)C)cc2)nc(-c2ncccn2)nc1OCCO [bosentan]
[2]
  secreted alanine transaminase (ALT) levels: dose dependent increment
[3]
  secreted alanine transaminase (ALT) levels: lack of response
[4]
  sodium/bile acid cotransporter expression levels: reduce sodium/bile acid cotransporter and BSEP transporter expression levels in a dose-dependent fashion
[5]
  BSEP transporter expression levels: reduce sodium/bile acid cotransporter and BSEP transporter expression levels in a dose-dependent fashion

## CCO [ethanol]
[6]; 0.16% ethanol, 120 hours of recovery (Day 7)
  lipid droplet accumulation: statistically significant as compared to vehicle control
[6]; after 48 h of recovery
  cholesterol levels: back to normal
[6]; 24 h
  cholesterol release: increased
[6]; 48 h
  cholesterol release: intensified
2D models
  ethanol concentration significantly decreasing viability: greater than 100 mM
Liver-Chip hepatocytes
  ethanol concentration at which modifications in glucose release levels were observed: above 0.32%
Liver-Chip hepatocytes; after ethanol-free recovery
  alcohol-induced steatosis: reverted
Liver-Chip hepatocytes; ethanol at physiologically relevant BAC
  cholesterol release (effluent): increase of cholesterol release
Liver-Chip hepatocytes; ethanol dosing
  cholesterol storage: increased cholesterol and glycogen storage
  glycogen storage: increased cholesterol and glycogen storage
Liver-Chip hepatocytes; ethanol dosing condition
  hepatocyte viability (albumin as viability marker): sublethal

## O=C(CO)[C@@H](O)[C@H](O)[C@H](O)CO [fructose]
[7]; 24 or 72 hours
  extracellular glycogen levels: No significant differences
[7]; 24 or 72 hours, or intestinal effluent media
  triglyceride levels: No significant differences
[7]; 48 h, fructose media
  glucose in microchannel effluent: observed to increase
[7]; intestinal effluent culture media, with or without fructose
  glucose in microchannel effluent: no difference observed
[7]; [11]
  hepatocyte cell number: decreased hepatocyte cell number
  hepatocyte cell size: increased hepatocyte cell size
  hepatocyte viability: no effect on hepatocyte viability
[7]; liver media or intestinal effluent media, 24, 48 or 72 hours
  cholesterol levels: failed to significantly increase cholesterol levels
[7]; low or high fructose, liver media or intestinal effluent media, 48 hours
  extracellular glycogen levels: dose-dependent decrease
[7]; low or high fructose, liver media, 48 hours
  triglyceride levels: dose-dependent increase

## TGF-α: factor printed as activating hepatic stellate cells in FIG. 46B
Hepatic stellate cells
  hepatic stellate cell activation: activation of hepatic stellate cells

## CCCCCCCC/C=C\CCCCCCCC(=O)O [oleic acid]
[8]; high fat diet
  cholesterol concentration: observed to increase
  free fatty acids concentration: observed to increase
  number of nuclei (hepatocyte proliferation or polyploidy): increase in the number of nuclei
[8]; [12]
  LSEC morphology by bright field imaging: developed an injury morphology
  lipid droplets accumulation inside co-cultured hepatocytes: significant increase of lipid droplets accumulation
[8]; oleic acid (0.1 to 0.5 μM), 48 hours
  extracellular glucose concentration: significantly higher
[8]; two day high fat diet
  cell viability (mitochondrial function): did not result in any significant reduction in cell viability
  oxidative stress markers, reactive oxygen species (ROS): increase in reactive oxygen species
[9]; 48 hours of high fat diet of oleic acid
  lipid droplet accumulation, cells proximal to channel inlet compared to channel outlet: higher density of lipid droplet accumulation
[9]; oleic acid only vs control
  observable fat droplets in the hepatocytes: significant increase in observable fat droplets
[10]; 1 μM Oleic acid
  LSEC morphology: alterations in morphology
[10]; 1 μM Oleic acid, 0, 40 and 64 hours
  hepatocyte lipid droplet accumulation over time: progressive accumulation
[10]; 1 μM Oleic acid, forty hours
  hepatocyte free fatty acids: shown to increase
[10]; high oleic acid concentration media, FIG. 7A
  lipid droplets in hepatocytes: Increased concentration of lipid droplets
[10]; oleic acid, 5 μM, 2 day exposure, FIG. 7B
  LSEC morphological features: Morphological features indicative of injury/stress exposure

## Nc1c2c(nc3ccccc13)CCCC2 [Tacrine, tacrine]
hepatocytes
  IL-1-α: accumulation
  IL-1beta: accumulation
  IL-6: accumulation
